Source: US10875829B1, “Azetidine derivatives useful as modulators of cortical catecholaminergic neurotransmission” (Integrative Research Laboratories Sweden AB, priority 2016, dated 2020)
pIC50: −log10 of the molar value. Structures can show the parent of a compound that is named as a salt. Marks after values point to notes of the source that are not given here.

Tests used:
[1] = molecular target: Human Dopamine Transporter (DAT (h)) (Homo sapiens (Human), UniProt Q01959); assay: Radioligand binding assay, human dopamine transporter ([3H]BTCP); details: for inhibition at 10 µM: 2 h, single concentration 1.0 E-5 M, duplicate, mean values; for pIC50: dose-response curves
Human Dopamine Transporter (DAT (h)), sequence (Q01959 whole entry): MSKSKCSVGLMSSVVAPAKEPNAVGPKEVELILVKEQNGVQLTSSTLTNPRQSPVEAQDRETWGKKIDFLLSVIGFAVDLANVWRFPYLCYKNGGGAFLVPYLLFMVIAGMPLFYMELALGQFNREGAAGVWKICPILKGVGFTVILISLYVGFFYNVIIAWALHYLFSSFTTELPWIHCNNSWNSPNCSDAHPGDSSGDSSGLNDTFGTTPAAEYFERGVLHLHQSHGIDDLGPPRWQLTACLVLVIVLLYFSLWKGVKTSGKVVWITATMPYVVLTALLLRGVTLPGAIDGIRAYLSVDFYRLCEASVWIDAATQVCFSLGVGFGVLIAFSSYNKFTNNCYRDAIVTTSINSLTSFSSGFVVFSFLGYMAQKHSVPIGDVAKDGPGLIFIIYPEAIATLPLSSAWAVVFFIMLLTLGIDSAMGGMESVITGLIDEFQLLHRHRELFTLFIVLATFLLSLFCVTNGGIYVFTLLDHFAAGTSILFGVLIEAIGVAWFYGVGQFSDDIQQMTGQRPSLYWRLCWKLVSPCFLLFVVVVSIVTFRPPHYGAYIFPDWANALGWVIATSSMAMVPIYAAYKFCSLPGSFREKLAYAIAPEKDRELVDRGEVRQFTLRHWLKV
Description: (The measurement was performed as described in Pristuba, Z. B., Wilson, J. M., Hoffman, B. J., Kish, S. J. and Nisnik, H. B. (1994), Pharmacological heterogeneity of the cloned and native human dopamine transporter: disassociation of [3H]WIN 35,428 and [3H]GBR 12,935 binding, Mol. Pharmacol., 45: 125)
Cell membrane homogenates (20 μg protein) are incubated for 120 min at 4° C. with 4 nM
(§1) [3H]BTCP in the absence or presence of the test compound in a buffer containing 50 mM Tris-HCl (pH 7.4) and 100 mM NaCl. Nonspecific binding is determined in the presence of 10 μM BTCP. Following incubation, the samples are filtered rapidly under vacuum through glass fiber filters (GF/B, Packard) presoaked with 0.3% PEI and rinsed several times with ice-cold 50 mM Tris-HCl using a 96-sample cell harvester (Unifilter, Packard). The filters are dried then counted for radioactivity in a scintillation counter (Topcount, Packard) using a scintillation cocktail (Microscint 0, Packard).
(§2) The results are expressed as a percent inhibition of the control radioligand specific binding.
(§3) […] Reported values are mean values.

[2] = molecular target: Human 5-HT Transporter (SERT (h)) (Homo sapiens (Human), UniProt P31645); assay: Radioligand binding assay, human 5-HT transporter ([3H]imipramine); details: for inhibition at 10 µM: 1 h, single concentration 1.0 E-5 M, duplicate, mean values; for pIC50: dose-response curves
Human 5-HT Transporter (SERT (h)), sequence (P31645 whole entry): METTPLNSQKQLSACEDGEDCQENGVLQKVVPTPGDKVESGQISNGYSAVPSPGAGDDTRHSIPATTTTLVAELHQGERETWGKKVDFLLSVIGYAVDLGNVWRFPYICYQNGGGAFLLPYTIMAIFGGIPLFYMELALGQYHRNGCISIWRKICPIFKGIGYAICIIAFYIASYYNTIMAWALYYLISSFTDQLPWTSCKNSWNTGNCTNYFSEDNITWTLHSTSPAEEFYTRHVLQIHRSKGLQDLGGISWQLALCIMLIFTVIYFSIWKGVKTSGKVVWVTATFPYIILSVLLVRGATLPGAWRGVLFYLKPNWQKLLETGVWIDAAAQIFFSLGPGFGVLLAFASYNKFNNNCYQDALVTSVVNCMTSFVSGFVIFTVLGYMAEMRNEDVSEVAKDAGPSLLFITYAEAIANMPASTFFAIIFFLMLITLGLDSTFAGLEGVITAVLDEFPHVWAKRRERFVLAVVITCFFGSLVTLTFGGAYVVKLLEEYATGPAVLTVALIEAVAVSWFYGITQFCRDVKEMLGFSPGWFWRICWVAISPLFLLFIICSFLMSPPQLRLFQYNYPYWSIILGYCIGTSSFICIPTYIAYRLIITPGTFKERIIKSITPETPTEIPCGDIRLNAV
Description: (The measurement was performed as described in Tatsumi, M., Jansen, K., Blakely, R. D. and Richelson, E. (1999), Pharmacological profile of neuroleptics at human monoamine transporters, Eur. J. Pharmacol.
Cell membrane homogenates (12 μg protein) are incubated for 60 min at 22° C. with 2 nM [3H]imipramine in the absence or presence of the test compound in a buffer containing 50 mM Tris-HCl (pH 7.4), 120 mM NaCl, 5 mM KCl and 0.1% BSA.
Nonspecific binding is determined in the presence of 10 μM imipramine.
Following incubation, the samples are filtered rapidly under vacuum through glass fiber filters (GF/B, Packard) presoaked with 0.3% PEI and rinsed several times with an ice-cold buffer containing 50 mM Tris-HCl and 150 mM NaCl using a 96-sample cell harvester (Unifilter, Packard). The filters are dried then counted for radioactivity in a scintillation counter (Topcount, Packard) using a scintillation cocktail (Microscint 0, Packard).
The results are expressed as a percent inhibition of the control radioligand specific binding
as §3

[3] = molecular target: Human Norepinephrine Transporter (NET (h)) (Homo sapiens (Human), UniProt P23975); assay: Radioligand binding assay, human norepinephrine transporter ([3H]nisoxetine); details: for inhibition at 10 µM: 2 h, single concentration 1.0 E-5 M, duplicate, mean values; for pIC50: dose-response curves
Human Norepinephrine Transporter (NET (h)), sequence (P23975 whole entry): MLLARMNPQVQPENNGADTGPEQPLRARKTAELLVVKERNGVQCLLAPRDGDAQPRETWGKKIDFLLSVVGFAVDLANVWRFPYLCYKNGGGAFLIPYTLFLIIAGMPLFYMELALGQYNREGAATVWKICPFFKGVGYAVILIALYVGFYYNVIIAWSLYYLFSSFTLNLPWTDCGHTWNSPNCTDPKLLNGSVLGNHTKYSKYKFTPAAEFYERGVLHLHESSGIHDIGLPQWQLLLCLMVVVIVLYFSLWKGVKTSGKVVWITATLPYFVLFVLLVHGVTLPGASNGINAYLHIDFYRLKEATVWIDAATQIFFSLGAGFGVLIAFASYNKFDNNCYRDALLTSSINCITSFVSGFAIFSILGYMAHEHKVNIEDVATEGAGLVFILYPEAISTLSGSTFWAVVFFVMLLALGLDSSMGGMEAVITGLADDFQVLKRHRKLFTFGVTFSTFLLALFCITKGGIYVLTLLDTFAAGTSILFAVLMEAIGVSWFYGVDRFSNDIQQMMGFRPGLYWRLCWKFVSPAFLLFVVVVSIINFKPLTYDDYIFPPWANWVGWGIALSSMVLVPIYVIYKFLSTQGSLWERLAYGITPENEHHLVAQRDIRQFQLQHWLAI
Description: (The measurement was performed as described in Pacholczyk, T., Blakely, R. D. and Amara, S. G. (1991), Expression cloning of a cocaine- and antidepressant-sensitive human noradrenaline transporter, Nature, 350: 350)
as §1, with “Cell membrane homogenates (20 μg protein) are incubated for 120 min at 4° C. with 1 nM [3H]nisoxetine” for “[3H]BTCP”, “7.4), 120 mM NaCl” for “7.4)”, “5” for “100”, “KCl.” for “NaCl.”, “1” for “10”, “desipramine.” for “BTCP.”
as §2, §3

DOPAC = assay: In vivo neurochemistry: tissue levels of DOPAC in brain regions; parameters: species or system rats; details: 100 μmol/kg s.c., 65 min before sacrifice, control saline, n=5
Text: The change in turnover of dopamine in the terminal areas of the ascending dopaminergic projections of the mammalian brain can be illustrated by measuring of changes in biochemical indices in the brain e.g. changes in concentrations of dopamine metabolites such as 3,4-dihydroxyphenyl-acetic acid (DOPAC) in the striatum and frontal cortex.
The measurement of the tissue content of DOPAC is well established in the field of research since the 1960's. In short, male Sprague-Dawley rats are administered the test compound 60 minutes prior to decapitation. The brain is rapidly taken out and dissected. The striatum is rapidly frozen and subsequently quantitatively analyzed with respect to its content of DOPAC by means of HPLC and electrochemical detection. The number of animals used for each test compound/vehicle is 5/group.
After the behavioural activity sessions, the rats were decapitated and their brains rapidly taken out and put on an ice-cold petri-dish. The brains were dissected into a right and a left part of which the right part was analyzed for neurochemicals with HPLC and the left part was analyzed for gene expression. The limbic forebrain, the striatum, the frontal cortex, the hippocampus and the remaining hemispheral parts of each rat were dissected and frozen. Each brain part was subsequently analyzed with respect to its content of monoamines and their metabolites.
The monoamine transmitter substances (NA (noradrenaline), DA (dopamine), 5-HT (serotonin)) as well as one corresponding acid, (DOPAC (3,4-dihydroxyphenylacetic acid), were quantified in brain tissue homogenates by HPLC separations and electrochemical detection.
The analytical method is based on two chromatographic separations dedicated for amines or acids. Two chromatographic systems share a common auto injector with a 10-port valve and two sample loops for simultaneous injection on the two systems. Both systems are equipped with a reverse phase column (Luna C18 (2), dp 3 μm, 50*2 mm i.d., Phenomenex) and electrochemical detection is accomplished at two potentials on glassy carbon electrodes (MF-1000, Bioanalytical Systems, Inc.). The column effluent is passed via a T-connection to the detection cell or to a waste outlet. This is accomplished by two solenoid valves, which block either the waste or detector outlet. By preventing the chromatographic front from reaching the detector, better detection conditions are achieved. The aqueous mobile phase (0.4 ml/min) for the acid system contains citric acid 14 mM, sodium citrate 10 mM, Methanol 15% (v/v) and EDTA 0.1 mM. Detection potentials relative to Ag/AgCl reference are 0.45 and 0.60V. […] Detection potentials relative to Ag/AgCl reference are 0.45 and 0.65V.
Each compound or saline solution (control) indicated in the above table was administered subcutaneously (s.c.) 65 min before sacrificing the animals. DOPAC results are presented as percent of control means±SEM (standard error of the mean). Statistical significance was assessed using Student's t-test (2 tailed) vs controls. * denotes p<0.05, ** p<0.01, *** p<0.001, n=5.

[4] = ratio of IC50 values of Table 6

Row | Compound | inhibition at 10 µM [1] | pIC50 [1] | inhibition at 10 µM [2] | pIC50 [2] | inhibition at 10 µM [3] | pIC50 [3] | fold more potent than Example 1A at DAT [1, 4] | fold more potent than Example 1A at SERT [2, 4] | fold more potent than Example 1A at NET [3, 4] | DOPAC cortex ± SEM (DOPAC) | DOPAC striatum ± SEM (DOPAC)
1 | Fc1cc(F)c(F)c(OC2CNC2)c1 [Example 2, 3-(2,3,5-trifluorophenoxy)azetidine hydrochloric acid salt] | 12% |  | 12% |  | 25% |  |  |  |  | 121 ± 5.6 % of control means | 96 ± 4 % of control means
2 | Fc1cc(F)c(F)c(OC2CNC2)c1F [Example 3, 3-(2,3,5,6-tetrafluorophenoxy)-azetidine hydrochloric acid salt] | 10% |  | 11% |  | 25% |  |  |  |  | 201 ± 11*** % of control means | 158 ± 3.4*** % of control means
3 | Fc1ccc(F)c(OC2CNC2)c1F [Example 20, 3-(2,3,6-trifluorophenoxy)azetidine hydrochloric acid salt] | 25% |  | 6% |  | 10% |  |  |  |  |  | 
4 | CCN1CC(Oc2c(F)c(F)cc(F)c2F)C1 [Example 39, 1-ethyl-3-(2,3,5,6-tetrafluorophenoxy)azetidine hydrochloric acid salt] | 17% |  | 1.5% |  | 11% |  |  |  |  | 191 ± 18** % of control means | 247 ± 13*** % of control means
5 | Fc1cc(F)cc(OC2CNC2)c1.O=C(O)C(O)C(O)C(=O)O [Example 52B, 3-(3,5-difluorophenoxy)azetidine (+)-tartaric acid salt] |  |  |  |  |  |  |  |  |  | 229 ± 4.6*** % of control means | 72 ± 1.7*** % of control means
6 | Clc1ccc(OC2CNC2)cc1Cl [Reference Compound, 3-(3,4-dichlorophenoxy)azetidine hydrochloric acid salt, reference compound] | 79% | 5.46 | 92% | 5.89 | 84% | 5.66 | 6 fold | 26 fold | 36 fold | 86 ± 5.6 % of control means | 89 ± 2.5 % of control means

Continued, in another order:

Row | inhibition at 10 µM [1] | pIC50 [1] | inhibition at 10 µM [2] | pIC50 [2] | inhibition at 10 µM [3] | pIC50 [3] | fold more potent than Example 1A at DAT [1, 4] | fold more potent than Example 1A at SERT [2, 4] | fold more potent than Example 1A at NET [3, 4] | Compound | DOPAC cortex ± SEM (DOPAC) | DOPAC striatum ± SEM (DOPAC)
7 | 49% | 4.68 | 59% | 4.47 | 37% | 4.10 |  |  |  | Fc1cccc(OC2CNC2)c1F [Example 1A, 3-(2,3-difluorophenoxy)azetidine hydrochloric acid salt] | 300 ± 26*** % of control means | 53 ± 2*** % of control means
8 | 25% |  | 29% |  | 25% |  |  |  |  | Fc1cc(F)cc(OC2CNC2)c1 [Example 52C, 3-(3,5-difluorophenoxy)azetidine hydrochloric acid salt] |  | 
